Test results published in publication PMC7894522, “Structure Based Design of Bicyclic Peptide Inhibitors of RbAp48” (Angewandte Chemie (International Ed. in English), 2020).
Starred links: 1 amine or outer side, 2 acyl side, 3 side chain; linkers in the order of their positions; H or OH if unused. Positions of bridges follow the written chain, without caps; N, C: chain ends. Residues, ends and D or L forms follow the SMILES beside them. TBMB = c1c(C[*:1])cc(C[*:3])cc1C[*:2]; mXylylene = c1cc(C[*:1])cc(C[*:2])c1; X2 = c1ccc2c(C[*:2])ccc(C[*:1])c2c1; pXylylene = c1cc(C[*:2])ccc1C[*:1]; X4 = N#Cc1cc(C[*:1])cc(C[*:2])c1; X5 = Brc1cc(C[*:1])cc(C[*:2])c1

molecular target: RbAp48 (Homo sapiens, UniProt Q09028); assay: Competitive fluorescence polarization (FP) assay using complex of peptide 1 and RbAp48; type: binding; design: Full length RbAp48 was cloned; His tag followed by 3C cleavage site (N, cleaved yes); made in house; host or cells: Sf9 insect cells; conditions: Supplemental Table 2; competitive FP, tracer 1 nM, RbAp48 15 nM, pH 7.5, 30 min room temperature; read-out: IC50
Procedure: The binding affinity of our library of synthetic cyclic peptides was evaluated by a competitive fluorescence polarization (FP) assay using a complex formed by peptide 1 and RbAp48. To reduce the length of the peptide it was truncated to the amino acids which seemed most critical according to the crystal structure (residues 676–689, pdb:4pbz). […] We chose to use a cyclization approach to regain affinity, that is, not to induce more interactions but through minimizing the entropic penalty upon binding by reducing the flexibility of the peptide. To this end two amino acids were chosen which are facing one another in the structure (see Figure 1 B/D/E). Two peptides were designed where glutamic acid was used in position 676 (4) or position 680 (5) and lysine in position 688 for both peptides (see Table 1). The macrocycles were formed by connecting the side chains via an amide bond (see Figure 1 D/E). Peptide synthesis was performed on Rink‐amide resin using the Fmoc‐strategy incorporating Fmoc‐L‐Glu(All)‐OH and Fmoc‐L‐Lys(Alloc)‐OH at the sites for cyclization. After completion of the linear synthesis the allyl protecting groups were removed using Pd^0 catalysis and the amide link was formed by using PyBOP. […] Therefore, a range of peptides was synthesized which were cyclized using the same amino acid positions but via a cysteine alkylation strategy (see Figure 1 D/E and Table 1). In this method the residues used for cyclization are replaced with cysteine and benzylic dibromides act as crosslinkers on the unprotected peptides. ^[11] Previous research has shown that such linkers can effectively stabilize cyclic peptides and yield high affinity ligands for protein–protein interaction inhibition. ^[12] Such a linker introduces a xylene group in close vicinity of the hydrophobic patch potentially reconstituting the lost key hydrophobic interactions. To explore a variety of macrocycle conformations we used either ortho‐, meta‐ or para‐substituted dibromides to exchange the linker in both 4 and 5 (see Figure 1 D/E and Table 1). ^[13]
Protein expression and purification
RbAp48 was expressed and purified by the Dortmund Protein Facility. Full length RbAp48 was cloned into a pOPIN vector ligating it to an N-terminal His tag followed by a 3C cleavage site. The protein was expressed from Sf9 cells for 48 h. Cells were harvested and lysed and the protein was purified by loading onto a HisTrap FF crude 5 ml column followed by on-column cleavage using Precission protease. The cleaved protein was then further purified using a HiLoad 26/60 Superdex 200 column.
Fluorescence polarization assay
Fluorescence polarization assays were performed in 384 wells plates in 80 µl volumes. The assay buffer contains 20 mM Tris-HCl, 150 mM NaCl, 0.01% Tween-20 at pH 7.5. The concentration of the fluorescently labelled peptides was 1 nM plates were incubated at room temperature for 30 min before they were read on a Tecan Spark plate reader (λex = 485 nm, λem = 535 nm).
For competitive assays the same conditions were used with a tracer concentration of 1 nM was used and a protein concentration of 15 nM .

Sequence of RbAp48 (Q09028 whole entry, the tested form may be a part): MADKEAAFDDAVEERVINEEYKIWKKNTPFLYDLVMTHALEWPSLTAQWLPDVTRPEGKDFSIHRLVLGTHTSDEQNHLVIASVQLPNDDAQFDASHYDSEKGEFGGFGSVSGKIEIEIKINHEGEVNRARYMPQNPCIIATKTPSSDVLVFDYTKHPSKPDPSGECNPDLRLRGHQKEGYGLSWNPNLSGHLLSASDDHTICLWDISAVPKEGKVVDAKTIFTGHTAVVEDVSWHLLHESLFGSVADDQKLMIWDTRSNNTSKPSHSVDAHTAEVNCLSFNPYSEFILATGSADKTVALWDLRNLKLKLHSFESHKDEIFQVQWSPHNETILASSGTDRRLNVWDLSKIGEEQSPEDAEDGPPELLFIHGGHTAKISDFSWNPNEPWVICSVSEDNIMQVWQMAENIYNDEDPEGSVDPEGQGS

IC50 [nM] | SMILES
31 ± 3.7 | CC(=O)N[C@H]1CSCc2cc(Br)cc(c2)CSC[C@@H](C(=O)N[C@@H](C)C(N)=O)NC(=O)[C@@H]2CCCN2C(=O)[C@H](CCCCN)NC(=O)[C@H](Cc2ccc(O)cc2)NC(=O)[C@@H]2CCCN2C(=O)[C@H](CCCNC(=N)N)NC(=O)[C@H](CCCNC(=N)N)NC(=O)[C@H](C)NC(=O)[C@H](C)NC(=O)[C@H](CCCNC(=N)N)NC(=O)[C@H](CCCCN)NC(=O)[C@H]([C@@H](C)O)NC1=O [Peptide 30] (Ac-CTKRAARRPYKPCA-NH2; linker 1-13 via X5 (inferred))
> 10000 | CC(=O)N[C@H]1CSCc2ccc(cc2)CSC[C@@H](C(=O)N[C@@H](CC(N)=O)C(N)=O)NC(=O)[C@@H]2CCCN2C(=O)[C@H](CC(C)C)NC(=O)[C@H](Cc2ccc(O)cc2)NC(=O)[C@@H]2CCCN2C(=O)[C@H](Cc2c[nH]cn2)NC(=O)[C@H](CCCNC(=N)N)NC(=O)[C@H](C)NC(=O)[C@H](C)NC(=O)[C@H](Cc2c[nH]cn2)NC(=O)[C@H](Cc2c[nH]c3ccccc23)NC(=O)[C@@H]2CCCN2C(=O)[C@H](CCCNC(=N)N)NC1=O [Peptide 17] (Ac-CRPWHAARHPYLPCN-NH2; linker 1-14 via pXylylene)
43.7 ± 6.4 | CC(=O)N[C@H]1CSCc2ccc(c3ccccc23)CSC[C@@H](C(=O)N[C@@H](C)C(N)=O)NC(=O)[C@@H]2CCCN2C(=O)[C@H](CCCCN)NC(=O)[C@H](Cc2ccc(O)cc2)NC(=O)[C@@H]2CCCN2C(=O)[C@H](CCCNC(=N)N)NC(=O)[C@H](CCCNC(=N)N)NC(=O)[C@H](C)NC(=O)[C@H](C)NC(=O)[C@H](CCCNC(=N)N)NC(=O)[C@H](CCCCN)NC(=O)[C@H]([C@@H](C)O)NC1=O [Peptide 32] (Ac-CTKRAARRPYKPCA-NH2; linker 1-13 via X2 (inferred))
335 ± 65 | CC(=O)N[C@H]1CSCc2ccc(cc2)CSC[C@@H](C(=O)N[C@@H](C)C(N)=O)NC(=O)[C@@H]2CCCN2C(=O)[C@H](CCCCN)NC(=O)[C@H](Cc2ccc(O)cc2)NC(=O)[C@@H]2CCCN2C(=O)[C@H](Cc2c[nH]cn2)NC(=O)[C@H](CCCNC(=N)N)NC(=O)[C@H](C)NC(=O)[C@H](C)NC(=O)[C@H](CCCNC(=N)N)NC(=O)[C@H](CCCCN)NC(=O)[C@H]([C@@H](C)O)NC1=O [Peptide 27] (Ac-CTKRAARHPYKPCA-NH2; linker 1-13 via pXylylene)
43.8 ± 4.7 | CC(=O)N[C@H]1CSCc2cc(C#N)cc(c2)CSC[C@@H](C(=O)N[C@@H](C)C(N)=O)NC(=O)[C@@H]2CCCN2C(=O)[C@H](CCCCN)NC(=O)[C@H](Cc2ccc(O)cc2)NC(=O)[C@@H]2CCCN2C(=O)[C@H](CCCNC(=N)N)NC(=O)[C@H](CCCNC(=N)N)NC(=O)[C@H](C)NC(=O)[C@H](C)NC(=O)[C@H](CCCNC(=N)N)NC(=O)[C@H](CCCCN)NC(=O)[C@H]([C@@H](C)O)NC1=O [Peptide 29] (Ac-CTKRAARRPYKPCA-NH2; linker 1-13 via X4 (inferred))
> 10000 | CC[C@H](C)[C@H](NC(=O)[C@@H]1CCCN1C(=O)[C@H](CC(C)C)NC(=O)[C@H](Cc1ccc(O)cc1)NC(=O)[C@@H]1CCCN1C(=O)[C@H](Cc1c[nH]cn1)NC(=O)[C@H](CCCNC(=N)N)NC(=O)[C@H](C)NC(=O)[C@H](C)NC(=O)[C@H](Cc1c[nH]cn1)NC(=O)[C@H](Cc1c[nH]c2ccccc12)NC(=O)[C@@H]1CCCN1C(=O)[C@H](CCCNC(=N)N)NC(=O)[C@H](CC(C)C)NC(C)=O)C(=O)N[C@@H](CC(N)=O)C(N)=O [Peptide 14] (Ac-LRPWHAARHPYLPIN-NH2)
512 ± 48.4 | CC(=O)N[C@H]1CSCc2cccc(c2)CSC[C@@H](C(=O)N[C@@H](C)C(N)=O)NC(=O)[C@@H]2CCCN2C(=O)[C@H](CCCCN)NC(=O)[C@H](Cc2ccc(O)cc2)NC(=O)[C@@H]2CCCN2C(=O)[C@H](Cc2c[nH]cn2)NC(=O)[C@H](CCCNC(=N)N)NC(=O)[C@H](C)NC(=O)[C@H](C)NC(=O)[C@H](CCCNC(=N)N)NC(=O)[C@H](CCCCN)NC(=O)[C@H]([C@@H](C)O)NC1=O [Peptide 26] (Ac-CTKRAARHPYKPCA-NH2; linker 1-13 via mXylylene)
22.3 ± 0.03 | CC(=O)N[C@H]1CSCc2cccc(c2)CSC[C@@H](C(=O)N[C@@H](C)C(N)=O)NC(=O)[C@@H]2CCCN2C(=O)[C@H](CCCCN)NC(=O)[C@H](Cc2ccc(O)cc2)NC(=O)[C@@H]2CCCN2C(=O)[C@H](CCCNC(=N)N)NC(=O)[C@H](CCCNC(=N)N)NC(=O)[C@H](C)NC(=O)[C@H](C)NC(=O)[C@H](CCCNC(=N)N)NC(=O)[C@H](CCCCN)NC(=O)[C@@H]2CCCN2C1=O [Peptide 20] (Ac-CPKRAARRPYKPCA-NH2; linker 1-13 via mXylylene)
7480 ± 3020 | CC(=O)N[C@H]1CSCc2cc3cc(c2)CSC[C@@H](C(=O)N[C@@H](CC(N)=O)C(N)=O)NC(=O)[C@@H]2CCCN2C(=O)[C@H](CC(C)C)NC(=O)[C@H](Cc2ccc(O)cc2)NC(=O)[C@@H]2CCCN2C(=O)[C@H](Cc2c[nH]cn2)NC(=O)[C@H](CCCNC(=N)N)NC(=O)[C@H](C)NC(=O)[C@H](CSC3)NC(=O)[C@H](Cc2c[nH]cn2)NC(=O)[C@H](Cc2c[nH]c3ccccc23)NC(=O)[C@@H]2CCCN2C1=O [Peptide 35] (Ac-CPWHCARHPYLPCN-NH2; linker 1-5-13 via TBMB)
153 ± 2.4 | CC(=O)N[C@H]1CSCc2cc3cc(c2)CSC[C@@H](C(=O)N[C@@H](CC(N)=O)C(N)=O)NC(=O)[C@@H]2CCCN2C(=O)[C@H](CC(C)C)NC(=O)[C@H](Cc2ccc(O)cc2)NC(=O)[C@@H]2CCCN2C(=O)[C@H](Cc2c[nH]cn2)NC(=O)[C@H](CCCNC(=N)N)NC(=O)[C@H](C)NC(=O)[C@H](CSC3)NC(=O)[C@H](Cc2c[nH]cn2)NC(=O)[C@H](Cc2c[nH]c3ccccc23)NC(=O)[C@@H]2CCCN2C(=O)[C@H](CCCNC(=N)N)NC1=O [Peptide 34] (Ac-CRPWHCARHPYLPCN-NH2; linker 1-6-14 via TBMB)
> 10000 | CC(=O)N[C@H]1CSCc2cccc(c2)CSC[C@@H](C(=O)N[C@@H](CC(N)=O)C(N)=O)NC(=O)[C@@H]2CCCN2C(=O)[C@H](CC(C)C)NC(=O)[C@H](Cc2ccc(O)cc2)NC(=O)[C@@H]2CCCN2C(=O)[C@H](Cc2c[nH]cn2)NC(=O)[C@H](CCCNC(=N)N)NC(=O)[C@H](C)NC(=O)[C@H](C)NC(=O)[C@H](Cc2c[nH]cn2)NC(=O)[C@H](Cc2c[nH]c3ccccc23)NC(=O)[C@@H]2CCCN2C(=O)[C@H](CCCNC(=N)N)NC1=O [Peptide 16] (Ac-CRPWHAARHPYLPCN-NH2; linker 1-14 via mXylylene)

same assay, conditions: Table 1; competitive FP, tracer peptide 1 1 nM, RbAp48 15 nM, 20 mM Tris-HCl, 150 mM NaCl, 0.01% Tween-20, pH 7.5, 30 min room temperature; lower limit set by 15 nM protein; read-out: IC50

IC50 [nM] | SMILES
131 ± 15.3 | CC(=O)N[C@H]1CSCc2cc3cc(c2)CSC[C@@H](C(=O)N[C@@H](C)C(N)=O)NC(=O)[C@@H]2CCCN2C(=O)[C@H](CCCCN)NC(=O)[C@H](Cc2ccc(O)cc2)NC(=O)[C@H](C)NC(=O)[C@H](CCCNC(=N)N)NC(=O)[C@H](CCCNC(=N)N)NC(=O)[C@H](C)NC(=O)[C@H](CSC3)NC(=O)[C@H](CCCNC(=N)N)NC(=O)[C@H](CCCCN)NC(=O)[C@H]([C@@H](C)O)NC1=O [Peptide 42] (Ac-CTKRCARRAYKPCA-NH2; linker 1-5-13 via TBMB)
15.6 ± 2.2 | CC(=O)N[C@H]1CSCc2cc3cc(c2)CSC[C@H](NC(=O)[C@H](CCCNC(=N)N)NC(=O)[C@H](CCCCN)NC(=O)[C@H]([C@@H](C)O)NC1=O)C(=O)N[C@@H](C)C(=O)N[C@@H](CCCNC(=N)N)C(=O)N[C@@H](CCCNC(=N)N)C(=O)N1CCC[C@H]1C(=O)N[C@@H](Cc1ccc(O)cc1)C(=O)N[C@@H](CCCCN)C(=O)N[C@@H](C)C(=O)N[C@H](C(=O)N[C@@H](C)C(N)=O)CSC3 [Peptide 45] (Ac-CTKRCARRPYKACA-NH2; linker 1-5-13 via TBMB)
18.7 ± 4.1 | CC(=O)N[C@H]1CSCc2cccc(c2)CSC[C@@H](C(=O)N[C@@H](C)C(N)=O)NC(=O)[C@@H]2CCCN2C(=O)[C@H](CCCCN)NC(=O)[C@H](Cc2ccc(O)cc2)NC(=O)[C@@H]2CCCN2C(=O)[C@H](CCCNC(=N)N)NC(=O)[C@H](CCCNC(=N)N)NC(=O)[C@H](C)NC(=O)[C@H](C)NC(=O)[C@H](CCCNC(=N)N)NC(=O)[C@H](CCCCN)NC(=O)[C@H]([C@@H](C)O)NC1=O [Peptide 7] (Ac-CTKRAARRPYKPCA-NH2; linker 1-13 via mXylylene)

same assay, conditions: competitive FP assay

FP activity in words | SMILES
IC50 values similar to those of 7 and 8 | CC(=O)N[C@H]1CSCc2cccc(c2)CSC[C@@H](C(=O)N[C@@H](C)C(N)=O)NC(=O)[C@@H]2CCCN2C(=O)[C@H](CCCCN)NC(=O)[C@H](Cc2ccc(O)cc2)NC(=O)[C@@H]2CCCN2C(=O)[C@H](CCCNC(=N)N)NC(=O)[C@H](CCCNC(=N)N)NC(=O)[C@H](C)NC(=O)[C@H](C)NC(=O)[C@H](CCCNC(=N)N)NC(=O)[C@H](CCCCN)NC(=O)[C@@H]2CCCN2C1=O [Peptide 20] (Ac-CPKRAARRPYKPCA-NH2; linker 1-13 via mXylylene)
